Assay results taken from patent US20070074295A1 (priority 2000, published 2007).

Key:
[1] = system: rats; assay: Effect of haloperidol and clozapine on PCP induced hypofunction: LCGU; format: in vivo, rat; settings: for LCGU, Au layer I / LCGU, Au layers II, III&IV / LCGU, Au layers V & VI / LCGU, AuD layer I / LCGU, AuD layers II, III&IV / LCGU, AuD layers V & VI / LCGU, CA1 molecular layer / LCGU, CA1 pyramidal cell layer / LCGU, CA1 stratum oriens / LCGU, CA1 stratum radiatum / LCGU, CA3 molecular layer / LCGU, CA3 pyramidal cell layer / LCGU, CA3 stratum oriens / LCGU, CA3 stratum radiatum / LCGU, DLL / LCGU, MD / LCGU, PrL layer I / LCGU, PrL layers II & III / LCGU, PrL layers V & VI / LCGU, Rt / LCGU, VLL / LCGU, cochlear nucleus / LCGU, mO layer I / LCGU, mO layers II & III / LCGU, mO layers V & VI: day 29
From the text: The effect of antipsychotics on the positive symptoms is less well studied regarding imaging studies.

[2] = system: CIRL1 mRNA; assay: Semi-quantitative RT-PCR, prefrontal cortex, chronic PCP and antipsychotic treatment; format: in vivo, rat; settings: chronic PCP plus antipsychotic
Procedure: FIG. 14 illustrates the level of CIRL1 mRNA present in the prefrontal cortex of rat brain following chronic PCP and antipsychotic treatment (n=12 for all groups apart from veh-veh where n=11). […] and […] (SEQ ID NOS: 25-26) were the primer sequences used to amplify this product.
(§1) RT-PCR for specific isoforms of CIRL was then conducted in the prefrontal cortex.
(§2) 1 ml of lysis buffer (Qiagen), including 1% β-mercaptoethanol, was added to approximately 50-100 mg of brain tissue. Tissue samples were homogenised using a ribolyser (Hybaid) with 3 bursts at 6.5 g lasting 20 seconds each. Samples were then spun at room temperature in a microfuge for 3 minutes. The supernatant was removed and re-spun for a further 3 minutes. The supernatant was decanted to a fresh tube to which an equal volume of 70% ethanol was added. The remaining RNA isolation procedure was carried out according to the manufacturer's protocol (Qiagen).
(§3) Synthesis of cDNA was carried out according to manufacturers protocols (Life Technologies). Briefly 3-5μg of total RNA was reverse transcribed using oligo dT priming. After cDNA synthesis, samples were aliquoted and stored at −70° C. […]
(§4) Alterations in expression levels were determined by semi-quantitative PCR. […] Samples were removed over 4 consecutive cycles, however, the first cycle to be removed sometimes varied depending on when logarithmic amplification was detected. […]

[3] = system: CIRL2 variant AB mRNA; assay: as above; format: in vivo, rat; settings: chronic PCP plus antipsychotic
Procedure: FIG. 15 illustrates the level of CIRL2 variant AB mRNA present in the prefrontal cortex of rat brain following chronic PCP and antipsychotic treatment (n=12 for all groups apart from veh-veh where n=11). […] and […] (SEQ ID NOS: 27-28) were the primer sequences used to amplify this product.
as §1, §2, §3, §4

[4] = system: CIRL3 variant AA mRNA; assay: as above; format: in vivo, rat; settings: chronic PCP plus antipsychotic
Procedure: FIG. 16 illustrates the level of CIRL3 variant AA mRNA present in the prefrontal cortex of rat brain following chronic PCP and antipsychotic treatment (n=12 for all groups apart from veh-veh where n=11) […] and […] (SEQ ID NOS: 29-30) were the primer sequences used to amplify this product.
as §1, §2, §3, §4

[5] = system: TNFα mRNA; assay: RT-PCR for TNFα mRNA in rat prefrontal cortex; format: in vivo; settings: chronic PCP in combination with haloperidol vs chronic PCP group
Procedure: Four groups of rats were treated with (a) chronic PCP, (b) chronic vehicle (control), (c) chronic PCP plus chronic clozapine (as above) or (d) chronic PCP plus chronic haloperidol (as above). The tissue was processed for RNA extraction and RT-PCP as described above, using primers specific for TNFα mRNA.

[6] = i.p. PCP 2.58 mgkg^−1, minipump vehicle, clozapine 20 or haloperidol 1 mgkg^−1/day
[7] = i.p. vehicle, minipump clozapine 20 or haloperidol 1 mgkg^−1/day
[8] = antipsychotic in conjunction with PCP 2.58 mgkg^−1
[9] = clozapine or haloperidol via minipump

SMILES: CN1CCN(C2=Nc3cc(Cl)ccc3Nc3ccccc32)CC1 [clozapine]
- LCGU, Au layer I [1, 6]: 140 ± 5 μmol/100 g/min
- LCGU, Au layers II, III&IV [1, 6]: 166 ± 6 μmol/100 g/min
- LCGU, Au layers V & VI [1, 6]: 118 ± 4 μmol/100 g/min
- LCGU, AuD layer I [1, 6]: 135 ± 5 μmol/100 g/min
- LCGU, AuD layers II, III&IV [1, 6]: 152 ± 6 μmol/100 g/min
- LCGU, AuD layers V & VI [1, 6]: 107 ± 4 μmol/100 g/min
- LCGU, CA1 molecular layer [1, 6]: 87 ± 2 μmol/100 g/min
- LCGU, CA1 pyramidal cell layer [1, 6]: 62 ± 2 μmol/100 g/min
- LCGU, CA1 stratum oriens [1, 6]: 57 ± 2 μmol/100 g/min
- LCGU, CA1 stratum radiatum [1, 6]: 66 ± 3 μmol/100 g/min
- LCGU, CA3 molecular layer [1, 6]: 84 ± 2 μmol/100 g/min
- LCGU, CA3 pyramidal cell layer [1, 6]: 69 ± 3 μmol/100 g/min
- LCGU, CA3 stratum oriens [1, 6]: 62 ± 1 μmol/100 g/min
- LCGU, CA3 stratum radiatum [1, 6]: 69 ± 2 μmol/100 g/min
- LCGU, DLL [1, 6]: 108 ± 5 μmol/100 g/min
- LCGU, MD [1, 6]: 113 ± 3 μmol/100 g/min
- LCGU, PrL layer I [1, 6]: 118 ± 6 μmol/100 g/min
- LCGU, PrL layers II & III [1, 6]: 134 ± 7 μmol/100 g/min
- LCGU, PrL layers V & VI [1, 6]: 104 ± 5 μmol/100 g/min
- LCGU, Rt [1, 6]: 81 ± 2 μmol/100 g/min
- LCGU, VLL [1, 6]: 118 ± 5 μmol/100 g/min
- LCGU, cochlear nucleus [1, 6]: 119 ± 8 μmol/100 g/min
- LCGU, mO layer I [1, 6]: 104 ± 5 μmol/100 g/min
- LCGU, mO layers II & III [1, 6]: 112 ± 6 μmol/100 g/min
- LCGU, mO layers V & VI [1, 6]: 115 ± 5 μmol/100 g/min
- LCGU, Au layer I [1, 7]: 136 ± 6 μmol/100 g/min
- LCGU, Au layers II, III&IV [1, 7]: 169 ± 6 μmol/100 g/min
- LCGU, Au layers V & VI [1, 7]: 126 ± 4 μmol/100 g/min
- LCGU, AuD layer I [1, 7]: 136 ± 4 μmol/100 g/min
- LCGU, AuD layers II, III&IV [1, 7]: 154 ± 5 μmol/100 g/min
- LCGU, AuD layers V & VI [1, 7]: 115 ± 6 μmol/100 g/min
- LCGU, CA1 molecular layer [1, 7]: 102 ± 5 μmol/100 g/min
- LCGU, CA1 pyramidal cell layer [1, 7]: 78 ± 4 μmol/100 g/min
- LCGU, CA1 stratum oriens [1, 7]: 72 ± 4 μmol/100 g/min
- LCGU, CA1 stratum radiatum [1, 7]: 80 ± 4 μmol/100 g/min
- LCGU, CA3 molecular layer [1, 7]: 96 ± 4 μmol/100 g/min
- LCGU, CA3 pyramidal cell layer [1, 7]: 81 ± 4 μmol/100 g/min
- LCGU, CA3 stratum oriens [1, 7]: 74 ± 4 μmol/100 g/min
- LCGU, CA3 stratum radiatum [1, 7]: 83 ± 5 μmol/100 g/min
- LCGU, DLL [1, 7]: 99 ± 5 μmol/100 g/min
- LCGU, MD [1, 7]: 124 ± 6 μmol/100 g/min
- LCGU, PrL layer I [1, 7]: 119 ± 4 μmol/100 g/min
- LCGU, PrL layers II & III [1, 7]: 139 ± 5 μmol/100 g/min
- LCGU, PrL layers V & VI [1, 7]: 98 ± 4 μmol/100 g/min
- LCGU, Rt [1, 7]: 95 ± 4 μmol/100 g/min
- LCGU, VLL [1, 7]: 109 ± 5 μmol/100 g/min
- LCGU, cochlear nucleus [1, 7]: 108 ± 7 μmol/100 g/min
- LCGU, mO layer I [1, 7]: 93 ± 4 μmol/100 g/min
- LCGU, mO layers II & III [1, 7]: 109 ± 4 μmol/100 g/min
- LCGU, mO layers V & VI [1, 7]: 106 ± 5 μmol/100 g/min

SMILES: O=C(CCCN1CCC(O)(c2ccc(Cl)cc2)CC1)c1ccc(F)cc1 [haloperidol]
- effect on PCP hypofunction in medial orbital cortex, prelimbic cortex, CA1, reticular nucleus of the thalamus [1, 8]: failed to modulate the hypofunction produced by PCP
- effect on PCP-induced hypofunction in auditory system (AuD, lateral lemniscus, cochlear nucleus) [1, 8]: reversed the PCP-induced hypofunction
- LCGU in auditory system (AuD, lateral lemniscus, cochlear nucleus), drug alone [1, 9]: did not produce a significant hypofunction
- LCGU in medial orbital cortex, prelimbic cortex, CA1, reticular nucleus of the thalamus, drug alone [1, 9]: produced a metabolic hypofunction
- LCGU, Au layer I [1, 6]: 141 ± 8 μmol/100 g/min
- LCGU, Au layers II, III&IV [1, 6]: 174 ± 10 μmol/100 g/min
- LCGU, Au layers V & VI [1, 6]: 117 ± 7 μmol/100 g/min
- LCGU, AuD layer I [1, 6]: 133 ± 7 μmol/100 g/min
- LCGU, AuD layers II, III&IV [1, 6]: 156 ± 10 μmol/100 g/min
- LCGU, AuD layers V & VI [1, 6]: 106 ± 6 μmol/100 g/min
- LCGU, CA1 molecular layer [1, 6]: 97 ± 4 μmol/100 g/min
- LCGU, CA1 pyramidal cell layer [1, 6]: 70 ± 4 μmol/100 g/min
- LCGU, CA1 stratum oriens [1, 6]: 64 ± 4 μmol/100 g/min
- LCGU, CA1 stratum radiatum [1, 6]: 74 ± 4 μmol/100 g/min
- LCGU, CA3 molecular layer [1, 6]: 94 ± 6 μmol/100 g/min
- LCGU, CA3 pyramidal cell layer [1, 6]: 74 ± 5 μmol/100 g/min
- LCGU, CA3 stratum oriens [1, 6]: 69 ± 5 μmol/100 g/min
- LCGU, CA3 stratum radiatum [1, 6]: 76 ± 5 μmol/100 g/min
- LCGU, DLL [1, 6]: 107 ± 2 μmol/100 g/min
- LCGU, MD [1, 6]: 119 ± 6 μmol/100 g/min
- LCGU, PrL layer I [1, 6]: 115 ± 3 μmol/100 g/min
- LCGU, PrL layers II & III [1, 6]: 134 ± 4 μmol/100 g/min
- LCGU, PrL layers V & VI [1, 6]: 97 ± 3 μmol/100 g/min
- LCGU, Rt [1, 6]: 80 ± 1 μmol/100 g/min
- LCGU, VLL [1, 6]: 110 ± 3 μmol/100 g/min
- LCGU, cochlear nucleus [1, 6]: 115 ± 2 μmol/100 g/min
- LCGU, mO layer I [1, 6]: 105 ± 4 μmol/100 g/min
- LCGU, mO layers II & III [1, 6]: 116 ± 4 μmol/100 g/min
- LCGU, mO layers V & VI [1, 6]: 119 ± 4 μmol/100 g/min
- LCGU, Au layer I [1, 7]: 142 ± 9 μmol/100 g/min
- LCGU, Au layers II, III&IV [1, 7]: 167 ± 9 μmol/100 g/min
- LCGU, Au layers V & VI [1, 7]: 112 ± 9 μmol/100 g/min
- LCGU, AuD layer I [1, 7]: 139 ± 9 μmol/100 g/min
- LCGU, AuD layers II, III&IV [1, 7]: 153 ± 9 μmol/100 g/min
- LCGU, AuD layers V & VI [1, 7]: 108 ± 7 μmol/100 g/min
- LCGU, CA1 molecular layer [1, 7]: 92 ± 5 μmol/100 g/min
- LCGU, CA1 pyramidal cell layer [1, 7]: 63 ± 4 μmol/100 g/min
- LCGU, CA1 stratum oriens [1, 7]: 59 ± 4 μmol/100 g/min
- LCGU, CA1 stratum radiatum [1, 7]: 66 ± 4 μmol/100 g/min
- LCGU, CA3 molecular layer [1, 7]: 90 ± 4 μmol/100 g/min
- LCGU, CA3 pyramidal cell layer [1, 7]: 71 ± 4 μmol/100 g/min
- LCGU, CA3 stratum oriens [1, 7]: 64 ± 4 μmol/100 g/min
- LCGU, CA3 stratum radiatum [1, 7]: 73 ± 1 μmol/100 g/min
- LCGU, DLL [1, 7]: 92 ± 4 μmol/100 g/min
- LCGU, MD [1, 7]: 117 ± 5 μmol/100 g/min
- LCGU, PrL layer I [1, 7]: 114 ± 4 μmol/100 g/min
- LCGU, PrL layers II & III [1, 7]: 131 ± 4 μmol/100 g/min
- LCGU, PrL layers V & VI [1, 7]: 93 ± 4 μmol/100 g/min
- LCGU, Rt [1, 7]: 86 ± 4 μmol/100 g/min
- LCGU, VLL [1, 7]: 106 ± 5 μmol/100 g/min
- LCGU, cochlear nucleus [1, 7]: 99 ± 9 μmol/100 g/min
- LCGU, mO layer I [1, 7]: 93 ± 4 μmol/100 g/min
- LCGU, mO layers II & III [1, 7]: 106 ± 4 μmol/100 g/min
- LCGU, mO layers V & VI [1, 7]: 102 ± 4 μmol/100 g/min
- effect on PCP-induced reductions in the level of CIRL1 mRNA [2]: not
- effect on PCP-induced reductions in CIRL2 [3]: reversed
- effect on PCP-induced reductions in CIRL3 [4]: reversed
- levels of TNFα in rat prefrontal cortex [5]: significantly different from the chronic PCP group
